Reference: US11512111B2, “Yeats inhibitors and methods of use thereof” (The University of Hong Kong, priority 2017, dated 2022)
“Also recorded” adds a separate entry of the source. One block for each compound: values may come before it. Residues, ends and D or L forms follow the SMILES beside them. *: point of attachment. Oxazole(5-CO) = O=C(c1cnco1)*; Crotonyl(E) = C/C=C/C(=O)*; 2Furoyl = O=C(c1ccco1)*; Cbz = O=C(OCc1ccccc1)*; X1 = O=C(c1ccoc1)*

How the values were obtained:
Assay type in all cases: binding
[1] = target: T1, AF9 YEATS domain (Homo sapiens, UniProt P42568); test: Photo-cross-linking-based competition assay (photoaffinity probe, click chemistry, in-gel fluorescence); settings: for preliminary screening of competitors: inhibitory activity on AF9 YEATS domain: fluorescent signal intensity at 0.3 μM compared with peptide control; for IC50: competition with photoaffinity probe, in-gel fluorescence
T1 construct: His-AF9 (1-138); His (N); made in house; host or cells: E. coli Rosetta
T1 sequence (P42568 1-138): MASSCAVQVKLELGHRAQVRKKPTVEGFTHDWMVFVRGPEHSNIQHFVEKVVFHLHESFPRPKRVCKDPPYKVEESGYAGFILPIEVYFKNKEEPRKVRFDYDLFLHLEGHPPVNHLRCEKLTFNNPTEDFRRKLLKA
Experimental: Mobile phase used were water with 0.1% trifluoroacetic acid (buffer A) and 90% acetonitrile in water with 0.1% trifluoroacetic acid (buffer B). The purity (>95%) and identity of peptides were confirmed by LC-MS. The inhibitory activities of the inhibitors were determined by a photo-cross-linking-based competition assay. […] The reactions were incubated for 1 h at r.t . . . . The reactions were quenched by adding 5 volumes of ice-cold acetone and placed at −20° C. overnight to precipitate proteins. After protein precipitation, samples were centrifuged at 6000×g for 5 min at 4° C. The supernatant was discarded and the pellet was washed with ice-cooled methanol twice and air-dried for 10 min. […] Samples were then resolved by SDS-PAGE. The labeled proteins were visualized by scanning the gel on a Typhoon 9410 variable mode imager (excitation 532 nm, emission filter 580 nm). A photo-cross-linking based method was used in this study to estimate inhibitory activity (FIG. 28). This method requires the use of a photoaffinity probe. The probe (probe 1 (SEQ ID NO:48), see below) is derived from a crotonylated peptide, ligand of the protein, carrying a photo-cross-linker and a terminal alkyne as bioorthogonal. The YEATS domain is incubated and bound to the probe through Kcr-dependent recognition. Upon UV-irradiation, the photo-cross-linker is activated and rapidly cross-linked to the protein, converting the non-covalent protein-probe interaction into a covalent linkage. The probe-labeled protein is subsequently conjugated to an azide-functionalized fluorescence dye (for example, rhodamine-N3, Rho-N3) via Cu(I)-catalyzed azide-alkyne cycloaddition (CuAAC, or “click” chemistry). After SDS-PAGE, the protein can be visualized by in-gel fluorescence scanning. If photo-cross-linking of the YEATS domain with photoaffinity probe is performed in the presence of an inhibitor, which occupies the Kcr binding pocket of the YEATS domain and thus inhibits the protein-probe interaction, the percentage of the YEATS domain in the sample that is labeled by the probe will be reduced. The in-gel fluorescence intensity detected will also be decreased. By varying the concentration of inhibitor added in the sample and quantifying the resulting fluorescence intensities, a competition curve of the inhibitor toward the protein-probe interaction will be obtained, which can be used to estimate the IC50 value. Due to the covalent nature of photo-cross-linking, weak protein-protein interactions can be captured and eventually visualized. The protein concentration used in the assay can be as low as several nanograms per microliter, while the fluorescence signal can still be robustly detected and quantified.

[2] = target: T1, AF9 YEATS domain; test: Isothermal titration calorimetry (ITC); settings: for Kd / N (sites) / ΔS / ΔH: ITC; for binding enhancement over the native crotonyl group: ITC Kd ratio; for ΔH: Table 3
Experimental: ^1H and ^13C NMR spectra were recorded on Bruker UltraShield 400 or 600 MHz spectrometers and were calibrated using residual undeuterated solvent as an internal reference. Chemical shifts were reported in ppm, and coupling constant J was reported in Hz. Peptides were analyzed by LC-MS with an Agilent 1260 Infinity HPLC system connected to a Thermo Finnigan LCQ DecaXP MS detector. Peptides were purified on a preparative HPLC system with Waters 2535 Quaternary Gradient Module, Waters 515 HPLC pump, Waters SFO System Fluidics Organizer, and Waters 2767 Sample Manager. Photo-cross-linking was performed with an ENF-260C/FE hand-hang UV lamp (Spectroline). In-gel fluorescence scanning was performed using a Typhoon 9410 variable mode imager from GE Healthcare Life Sciences (excitation 532 nm, emission 580 nm). Images of Coomassie blue staining were acquired by MyECL Imager from Thermo Scientific. All images were processed by ImageJ software (National Institutes of Health), and contrast was adjusted appropriately. ITC experiments were performed with a MicroCal iTC200 titration calorimeter (MicroCal). IC50 and dissociation constants were fit with Origin 7.0 software package (OriginLab).
To further validate the reliability of the results obtained from the photo-cross-linking-based competition assay, we performed isothermal titration calorimetry (ITC) to determine the direct binding affinities of the inhibitors toward the AF9 YEATS domain. […] The ITC measurements were in agreement with the IC50 data, indicating the reliability of the results obtained from the photo-cross-linking-based competition assay.

[3] = target: T2, ENL YEATS domain (Homo sapiens, UniProt Q03111); test: Photo-cross-linking-based competition assay; settings: competition with photoaffinity probe, in-gel fluorescence
T2 construct: His-SUMO-ENL (1-138); His (N); SUMO (N); made in house; host or cells: E. coli Rosetta
T2 sequence (Q03111 1-138): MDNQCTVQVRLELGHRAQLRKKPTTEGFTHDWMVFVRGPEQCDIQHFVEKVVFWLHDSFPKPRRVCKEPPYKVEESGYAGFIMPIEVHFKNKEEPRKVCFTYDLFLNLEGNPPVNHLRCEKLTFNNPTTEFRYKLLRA

Compound: 43 (Cbz-QTAKK-NH2; not fully specified (residue 5); also: K5: modified crotonyl group with attached furancarbonyl side chain) [Compound 43]
- preliminary screening of competitors: inhibitory activity on AF9 YEATS domain [1]: interact with the AF9 YEATS domain weakly

Compound: 45 (Cbz-QTAQK-NH2; not fully specified (residue 5); also: K5: modified crotonyl group with attached furancarbonyl side chain) [Compound 45]
- preliminary screening of competitors: inhibitory activity on AF9 YEATS domain [1]: interact with the AF9 YEATS domain weakly

- preliminary screening of competitors: inhibitory activity on AF9 YEATS domain [1]: activity of inhibitor drops
Compound: 65 (Cbz-NTARK-NH2; not fully specified (residue 5); also: K5: modified crotonyl group with attached furancarbonyl side chain) [Compound 65]

- IC50 [1]: 1300 nM
- Kd [2]: 3300 nM
- N (sites) [2]: 0.91 ± 0.01 sites
- ΔS [2]: −15.9 cal/mol/deg
- binding enhancement over the native crotonyl group [2]: 4.5 fold
- ΔH [2]: -12230 ± 110 cal/mol
Compound: C[C@H](NC(=O)[C@@H](NC(=O)[C@H](CCC(N)=O)NC(=O)[C@@H](N)CCCCN)[C@@H](C)O)C(=O)N[C@@H](CCCNC(=N)N)C(=O)N[C@@H](CCCCNC(=O)c1ccco1)C(=O)N[C@@H](CO)C(=O)N[C@H](C(=O)NCC(=O)NCC(N)=O)[C@@H](C)O [Compound 7] (H-KQTARK(2Furoyl)STGG-NH2)

- IC50 [1]: 1700 nM
Compound: C[C@H](NC(=O)[C@@H](NC(=O)[C@H](CCC(N)=O)NC(=O)[C@@H](N)CCCCN)[C@@H](C)O)C(=O)N[C@@H](CCCNC(=N)N)C(=O)N[C@@H](CCCCNC(=O)c1ccoc1)C(=O)N[C@@H](CO)C(=O)N[C@H](C(=O)NCC(=O)NCC(N)=O)[C@@H](C)O [Compound 8] (H-KQTARK(X1)STGG-NH2)

- IC50 [1]: 740 nM
- Kd [2]: 1000 nM
- N (sites) [2]: 1.04 ± 0.02 sites
- ΔS [2]: −13.8 cal/mol/deg
- binding enhancement over the native crotonyl group [2]: 14.8 fold
- ΔH [2]: -12290 ± 376 cal/mol
Compound: C[C@H](NC(=O)[C@@H](NC(=O)[C@H](CCC(N)=O)NC(=O)[C@@H](N)CCCCN)[C@@H](C)O)C(=O)N[C@@H](CCCNC(=N)N)C(=O)N[C@@H](CCCCNC(=O)c1cnco1)C(=O)N[C@@H](CO)C(=O)N[C@H](C(=O)NCC(=O)NCC(N)=O)[C@@H](C)O [Compound 13] (H-KQTARK(Oxazole(5-CO))STGG-NH2)

- IC50 [1]: 4500 nM
Compound: C[C@H](NC(=O)[C@@H](NC(=O)[C@@H](N)CCC(N)=O)[C@@H](C)O)C(=O)N[C@@H](CCCNC(=N)N)C(=O)N[C@@H](CCCCNC(=O)c1ccco1)C(N)=O [Compound 24]

- IC50 [1]: 460 nM
Compound: C[C@H](NC(=O)[C@@H](NC(=O)[C@H](CCC(N)=O)NC(=O)[C@@H](N)CCCCN)[C@@H](C)O)C(=O)N[C@@H](CCCNC(=N)N)C(=O)N[C@@H](CCCCNC(=O)c1ccco1)C(N)=O [Compound 25] (H-KQTARK(2Furoyl)-NH2; N-terminus and C-terminus assumed)

Compound: CC(C)C[C@H](NC(=O)[C@@H](NC(=O)[C@H](CCC(N)=O)NC(=O)OCc1ccccc1)[C@@H](C)O)C(=O)N[C@@H](CCCNC(=N)N)C(=O)N[C@@H](CCCCNC(=O)c1ccco1)C(N)=O [Compound 47] (Cbz-QTLRK(2Furoyl)-NH2; N-terminus and C-terminus assumed)
- preliminary screening of competitors: inhibitory activity on AF9 YEATS domain ([1]; listed as A7-L): comparable results; also recorded: comparable inhibitory activities

Compound: C[C@@H](O)[C@H](NC(=O)[C@H](CCC(N)=O)NC(=O)OCc1ccccc1)C(=O)N[C@@H](Cc1c[nH]c2ccccc12)C(=O)N[C@@H](CCCNC(=N)N)C(=O)N[C@@H](CCCCNC(=O)c1ccco1)C(N)=O [Compound 49] (Cbz-QTWRK(2Furoyl)-NH2; N-terminus and C-terminus assumed)
- preliminary screening of competitors: inhibitory activity on AF9 YEATS domain ([1]; listed as A7-W): comparable results; also recorded: comparable inhibitory activities

- preliminary screening of competitors: inhibitory activity on AF9 YEATS domain [1]: comparable inhibitory activities
Compound: C[C@H](NC(=O)[C@H](C)NC(=O)[C@H](CCC(N)=O)NC(=O)OCc1ccccc1)C(=O)N[C@@H](CCCNC(=N)N)C(=O)N[C@@H](CCCCNC(=O)c1ccco1)C(N)=O [Compound 53] (Cbz-QAARK(2Furoyl)-NH2; N-terminus and C-terminus assumed)

- preliminary screening of competitors: inhibitory activity on AF9 YEATS domain [1]: comparable inhibitory activities
Compound: C[C@H](NC(=O)[C@H](CO)NC(=O)[C@H](CCC(N)=O)NC(=O)OCc1ccccc1)C(=O)N[C@@H](CCCNC(=N)N)C(=O)N[C@@H](CCCCNC(=O)c1ccco1)C(N)=O [Compound 55] (Cbz-QSARK(2Furoyl)-NH2; N-terminus and C-terminus assumed)

- IC50 [1]: 226 nM
Compound: C[C@H](NC(=O)[C@@H](NC(=O)[C@H](CCC(N)=O)NC(=O)Cc1ccc2ccccc2c1)[C@@H](C)O)C(=O)N[C@@H](CCCNC(=N)N)C(=O)N[C@@H](CCCCNC(=O)c1ccco1)C(N)=O [Compound 74]
- preliminary screening of competitors: inhibitory activity on AF9 YEATS domain ([1]; listed as Cbz-4): comparable binding affinity; also recorded: comparable inhibitory activities

- IC50 [1]: 1800 nM
- IC50 [3]: 43.6 µM
Compound: C[C@@H]1NC(=O)[C@H]([C@H](C)O)NC(=O)[C@@H](NC(=O)OCc2ccccc2)CCCCNC(=N)NCCC[C@H](C(=O)N[C@@H](CCCCNC(=O)c2ccco2)C(N)=O)NC1=O [Compound 78]

- IC50 [1]: 5100 nM
- IC50 [3]: 9.23 µM
Compound: C[C@@H]1NC(=O)[C@H]([C@H](C)O)NC(=O)[C@@H](NC(=O)OCc2ccccc2)Cn2cc(nn2)CNC(=N)NCCC[C@H](C(=O)N[C@@H](CCCCNC(=O)c2cnco2)C(N)=O)NC1=O [Compound 82]

- IC50 [1]: 6000 nM
- N (sites) [2]: 0.96 ± 0.02 sites
- ΔS [2]: −17.8 cal/mol/deg
- ΔH [2]: -11920 ± 423 cal/mol
Compound: C/C=C/C(=O)NCCCC[C@H](NC(=O)[C@H](CCCNC(=N)N)NC(=O)[C@H](C)NC(=O)[C@@H](NC(=O)[C@H](CCC(N)=O)NC(=O)[C@@H](N)CCCCN)[C@@H](C)O)C(=O)N[C@@H](CO)C(=O)N[C@H](C(=O)NCC(=O)NCC(N)=O)[C@@H](C)O [Compound 85, reference compound] (H-KQTARK(Crotonyl(E))STGG-NH2; N-terminus and C-terminus assumed)

- IC50 [1]: 189 nM
Compound: C[C@H](NC(=O)[C@@H](NC(=O)[C@H](CCC(N)=O)NC(=O)OCc1ccccc1)[C@@H](C)O)C(=O)N[C@@H](CCCNC(=N)N)C(=O)N[C@@H](CCCCNC(=O)c1ccco1)C(N)=O [peptide control]
